Source: the supplement of paper PMC9013687

How the values were obtained:
[1] = test system: Danio rerio embryo; experiment: EC10 Head trunk angle_Decrease; higher = less potent; details: exposure time: 2 dpf
Description: (§1)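 Zebrafish embryos (UFZ-OBI strain) were exposed from 2 hpf for 48 h (2 dpf) or 96 h (4 dpf) at 28 °C; spontaneous tail coiling was scored at 25 hpf. Morphological features from automated image analysis (FishInspector), heart rate and locomotor response were fitted with drc models. Quantal endpoints were dichotomised at 2.5 SD from controls and fitted with a log-logistic model; heart rate, pigmentation and STC were normalised to the replicate control mean. Betamethasone was tested as betamethasone dipropionate, diflorasone as diflorasone diacetate.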

[2] = test system: Danio rerio embryo; experiment: EC10 Eye size_Decrease; higher = less potent; details: exposure time: 2 dpf
Description: as §1

[3] = test system: Danio rerio embryo; experiment: EC20 Curvature_Increase; higher = less potent
Description: as §1

[4] = test system: Danio rerio embryo; experiment: EC20 Head size_Decrease; higher = less potent; details: exposure time: 2 dpf
Description: as §1

[5] = test system: Danio rerio embryo; experiment: EC50 Pericard size_Increase; details: exposure time: 2 dpf
Description: as §1

[6] = test system: Danio rerio embryo; experiment: EC10 Eye-jaw distance_Decrease; higher = less potent; details: exposure time: 4 dpf
Description: as §1

[7] = test system: Danio rerio embryo; experiment: EC20 LMR ligth decrease; higher = less potent; details: exposure time: 4 dpf
Description: as §1

[8] = test system: Danio rerio embryo; experiment: EC50 Head trunk angle_Decrease; details: exposure time: 2 dpf
Description: as §1

[9] = test system: Danio rerio embryo; experiment: EC20 Body length_Decrease; higher = less potent
Description: as §1

[10] = test system: Danio rerio embryo; experiment: EC50 Yolk sac size_Increase
Description: as §1

[11] = test system: Danio rerio embryo; details: exposure time: 4 dpf
Description: as §1

[12] = test system: Danio rerio embryo; experiment: EC10 Body length_Decrease; higher = less potent
Description: as §1

[13] = test system: Danio rerio embryo; experiment: EC20 Head trunk angle_Decrease; higher = less potent; details: exposure time: 2 dpf
Description: as §1

[14] = test system: Danio rerio embryo; experiment: EC10 LMR dark; higher = less potent; details: exposure time: 4 dpf
Description: as §1

[15] = test system: Danio rerio embryo
Description: as §1

[16] = test system: Danio rerio embryo; experiment: EC20 Yolk sac size_Increase; higher = less potent
Description: as §1

[17] = test system: Danio rerio embryo; experiment: EC10 Any effect; higher = less potent
Description: as §1

[18] = test system: Danio rerio embryo; experiment: EC10 Pericard size_Increase; higher = less potent; details: exposure time: 2 dpf
Description: as §1

[19] = test system: Danio rerio embryo; experiment: EC50 Head size_Decrease; details: exposure time: 2 dpf
Description: as §1

[20] = test system: Danio rerio embryo; experiment: EC20 STC decrease; higher = less potent; details: exposure time: 25 h
Description: as §1

Compound: CC1=C(/C=C/C(C)=C/C=C/C(C)=C/C(=O)O)C(C)(C)CCC1 [all-trans retinoic acid]
- EC10 Head trunk angle Decrease [1]: 0.002 µM
- EC10 Eye size Decrease [2]: 0.034 µM
- EC20 Curvature Increase ([3]; exposure time: 2 dpf): 0.009 µM
- EC20 Curvature Increase ([3]; exposure time: 4 dpf): 0.007 µM
- EC20 Head size Decrease [4]: 0.026 µM
- EC50 Pericard size Increase [5]: 0.039 µM
- EC10 Eye-jaw distance Decrease [6]: 0.025 µM
- EC20 LMR ligth decrease [7]: 0.00475 µM
- EC50 Head trunk angle Decrease [8]: 0.011 µM
- EC20 Body length Decrease ([9]; exposure time: 2 dpf): 0.033 µM
- EC20 Body length Decrease ([9]; exposure time: 4 dpf): 0.03 µM
- EC50 Yolk sac size Increase ([10]; exposure time: 2 dpf): 0.045 µM
- EC50 Yolk sac size Increase ([10]; exposure time: 4 dpf): 0.039 µM
- EC50 LMR dark [11]: 0.036 µM
- EC10 Body length Decrease ([12]; exposure time: 2 dpf): 0.031 µM
- EC10 Body length Decrease ([12]; exposure time: 4 dpf): 0.023 µM
- EC20 Head trunk angle Decrease [13]: 0.004 µM
- EC10 LMR dark [14]: 0.016 µM
- EC50 Any effect ([15]; exposure time: 2 dpf): 0.009 µM
- EC50 Any effect ([15]; exposure time: 4 dpf): 0.011 µM
- EC50 LMR ligth decrease ([15]; exposure time: 4 dpf): 0.0274 µM
- EC50 STC decrease ([15]; exposure time: 25 h): 0.076 µM
- EC20 Yolk sac size Increase ([16]; exposure time: 2 dpf): 0.021 µM
- EC20 Yolk sac size Increase ([16]; exposure time: 4 dpf): 0.036 µM
- EC10 Any effect ([17]; exposure time: 2 dpf): 0.008 µM
- EC10 Any effect ([17]; exposure time: 4 dpf): 0.006 µM
- EC10 Pericard size Increase [18]: 0.035 µM
- EC50 Head size Decrease [19]: 0.042 µM
- EC20 STC decrease [20]: 0.0056 µM
